In publication PMC8285431, “Machine learning designs non-hemolytic antimicrobial peptides” (Chemical Science, 2021):
Ends that are not written are not given here.

How the values were obtained:
human red blood cells = details: 10 mM phosphate buffer saline pH 7.4, 25 °C, 4 h, visual inspection, 0.1% Triton X-100 positive control
Description: Compounds were subjected to a hemolysis assay to assess the hemolytic effect on human red blood cells (hRBCs). The blood was obtained from Interregionale Blutspende SRK AG, Bern, Switzerland. 1.5 mL of whole blood was centrifuged at 3000 rpm for 15 minutes at 4 °C. The plasma was discarded, and the hRBC pellet was re-suspended in 5 mL of PBS (pH 7.4) then centrifuged at 3000 rpm for 5 minutes at 4 °C. The washing of hRBC was repeated three times and the remaining pellet was re-suspended in 10 mL of PBS.
The samples were prepared as the initial concentration of 4000 μg mL^−1 in PBS, added to the first well of 96-well microtiter plate (TPP, untreated) and diluted serially by 1/2. […] Controls on each plate included a blank medium control (PBS 100 μL) and a hemolytic activity control (0.1% Triton X-100). 100 μL of hRBC suspension was incubated with 100 μL of each sample in PBS in 96-well plate (Nunc 96-Well Polystyrene Conical Bottom MicroWell Plates). After the plates were incubated for 4 h at room temperature, minimal hemolytic concentration (MHC) was determined by visual inspection of the wells. 100 μL supernatants was carefully pipetted to a flat bottom, clear wells plate (TPP® tissue culture plates, polystyrene).

P. aeruginosa = assay: MIC, broth microdilution; assay type: cell-based, Pseudomonas aeruginosa; details: Mueller–Hinton medium, 16–20 h at 37 °C, trifluoroacetate salts
Text: (§1) We synthesized the selected 14 GN and 14 GP peptides by solid phase peptide synthesis and evaluated the activity of their HPLC-purified trifluoroacetate salts by determining minimum inhibitory concentrations (MIC) against bacteria by broth microdilution assay in Muller–Hinton medium and minimum hemolysis concentrations (MHC) on human red blood cells by serial dilution in phosphate buffer saline (Table 1).
(§2) To determine the minimal inhibitory concentration (MIC), the broth microdilution method was used. A colony of bacteria was grown in LB (Lysogeny broth) medium overnight at 37 °C. The samples were prepared as stock solutions of 8 mg mL^−1 in H2O, diluted to the initial concentration of 64 or 128 μg mL^−1 in 300 μL Mueller–Hinton (MH) medium, added to the first well of 96-well microtiter plate (TPP, untreated), and diluted serially by 1/2. The concentration of the bacteria was quantified by measuring absorbance at 600 nm and diluted to OD600 = 0.022 in MH medium. The sample solutions (150 μL) were mixed with 4 μL diluted bacterial suspension with a final inoculation of about of 5 × 10^5 CFU. The plates were incubated at 37 °C until satisfactory growth (∼18 h). […] The MIC was defined as the lowest concentration of the peptide dendrimer that inhibited visible growth of the tested bacteria, as detected after treatment with MTT.

MRSA = assay: MIC, broth microdilution; assay type: cell-based, methicillin-resistant Staphylococcus aureus; details: Mueller–Hinton medium, 16–20 h at 37 °C, trifluoroacetate salts
Text: as §1, §2

A. baumannii = assay: MIC, broth microdilution; assay type: cell-based, Acinetobacter baumannii; details: Mueller–Hinton medium, 16–20 h at 37 °C, trifluoroacetate salts
Text: as §1, §2

E. coli = assay: MIC, broth microdilution; assay type: cell-based, Escherichia coli; details: Mueller–Hinton medium, 16–20 h at 37 °C, trifluoroacetate salts
Text: as §1, §2

K. pneumoniae NCTC148 = assay type: cell-based, Klebsiella pneumoniae; details: MDR Gram-negative strain; Müller–Hinton medium, 16–20 h, 37 °C; two independent experiments in duplicate
Description: (§3) To determine the minimal inhibitory concentration (MIC), the broth microdilution method was used. A colony of bacteria was grown in LB (Lysogeny broth) medium overnight at 37 °C. The samples were prepared as stock solutions of 8 mg mL^−1 in H2O, diluted to the initial concentration of 64 or 128 μg mL^−1 in 300 μL Mueller–Hinton (MH) medium, added to the first well of 96-well microtiter plate (TPP, untreated), and diluted serially by 1/2. The concentration of the bacteria was quantified by measuring absorbance at 600 nm and diluted to OD600 = 0.022 in MH medium. The sample solutions (150 μL) were mixed with 4 μL diluted bacterial suspension with a final inoculation of about of 5 × 10^5 CFU. The plates were incubated at 37 °C until satisfactory growth (∼18 h). For each test, two columns of the plate were kept for sterility control (broth only) and growth control (broth with bacterial inoculums, no antibiotics). The MIC was defined as the lowest concentration of the peptide dendrimer that inhibited visible growth of the tested bacteria, as detected after treatment with MTT.

K. pneumoniae (OXA-48) = assay type: cell-based, Klebsiella pneumoniae; details: MDR Gram-negative strain; Müller–Hinton medium, 16–20 h, 37 °C; two independent experiments in duplicate
Description: as §3

[1] = tested on: P. aeruginosa PA14 2P4 (pmrB); assay: MIC, broth microdilution; assay type: cell-based; details: spontaneous mutant, polymyxin B resistant; Müller–Hinton medium, 16–20 h, 37 °C; two independent experiments in duplicate
Description: as §3

[2] = tested on: P. aeruginosa PA14 4.18 (pmrB); assay: MIC, broth microdilution; assay type: cell-based; details: spontaneous mutant, polymyxin B resistant; Müller–Hinton medium, 16–20 h, 37 °C; two independent experiments in duplicate
Description: as §3

[3] = tested on: P. aeruginosa PA14 4.13 (phoQ); assay: MIC, broth microdilution; assay type: cell-based; details: spontaneous mutant, polymyxin B resistant; Müller–Hinton medium, 16–20 h, 37 °C; two independent experiments in duplicate
Description: as §3

P. aeruginosa PA14 = assay: MIC, broth microdilution; assay type: cell-based; details: Gram-negative; Müller–Hinton medium, 16–20 h, 37 °C; two independent experiments in duplicate
Description: as §3

B. cenocepacia = assay type: cell-based; details: MDR Gram-negative strain; Müller–Hinton medium, 16–20 h, 37 °C; two independent experiments in duplicate
Description: as §3

P. aeruginosa ZEM9A = assay type: cell-based; details: MDR Gram-negative strain; Müller–Hinton medium, 16–20 h, 37 °C; two independent experiments in duplicate
Description: as §3

P. aeruginosa ZEM-1A = assay type: cell-based; details: MDR Gram-negative strain; Müller–Hinton medium, 16–20 h, 37 °C; two independent experiments in duplicate
Description: as §3

S. maltophilia = assay type: cell-based; details: MDR Gram-negative strain; Müller–Hinton medium, 16–20 h, 37 °C; two independent experiments in duplicate
Description: as §3

S. epidermidis = assay type: cell-based; details: MDR Gram-positive strain; Müller–Hinton medium, 16–20 h, 37 °C; two independent experiments in duplicate; in µg/mL
Description: as §3

E. cloacae = assay type: cell-based; details: MDR Gram-negative strain; Müller–Hinton medium, 16–20 h, 37 °C; two independent experiments in duplicate
Description: as §3

Substance | MHC (minimal hemolytic concentration) (human red blood cells) [µg/mL] | further results
AGRLQKVFKVIAK-NH2 [GN13] | >2000 | 
AKKVVKKIYKRFQK-NH2 [GP10] | >2000 | 
AKRIRKLIKKIFKKI-NH2 [GN1] | >2000 | 
ARKFRRLVKKLR-NH2 [GP11] | >2000 | 
ARKKWRKRLKKLKI-NH2 [GP9] | >2000 | 
ARKWRKFLKKI-NH2 [GP7] | >2000 | 
FLHSIGKAIGRLLR-NH2 [GP3] | 250 | 
FLKAVKKLIPSLF-NH2 [GP1] | 2000 | 
GIGAVLNVAKKLL-NH2 [GP4] | >2000 | 
GNWRKIVHKIKKAG-NH2 [GN12] | >2000 | 
GRIKRIRKIIHKY-NH2 [GP8] | >2000 | 
IDKWKAAFKKIKNLF-NH2 [GN3] | 500 | 
IHKLAKLAKNVL-NH2 [GN14] | >2000 | 
IRRIRKKIKKIFKKI-NH2 [GN10] | >2000 | 
KFFRKLKKLVKK-NH2 [GN5] | >2000 | 
KRIRKWVRRILKKL-NH2 [GN7] | 250 | 
KRLWKIRQRIAK-NH2 [GP13] | >2000 | 
KRLWKRIYRLLKK-NH2 [GN9] | 250 | 
KVARFLKKFFR-NH2 [GP5] | >2000 | 
LKKLWKRIIKVGR-NH2 [GP6] | >2000 | 
LNALKKVFQKIH-NH2 [GP14] | >2000 | 
LNALKKVFQKIRQGL [GN4, ML-generated linear peptide carboxamide from the P. aeruginosa/A. baumannii model] | >2000 | MIC P. aeruginosa (P. aeruginosa): 32 µg/mL; MIC MRSA (MRSA): >64 µg/mL; MIC A. baumannii (A. baumannii): 16 µg/mL; MIC E. coli (E. coli): 4 µg/mL
LRKARRLLKKLRARL-NH2 [GN11] | >2000 | 
LRKARRLVKKLA-NH2 [GP12] | >2000 | 
LRKFWKKIRKFLKKI-NH2 [GN8] | 62.5 | 
Polymyxin B |  | MIC K. pneumoniae NCTC148 (K. pneumoniae NCTC148): 1 µg/mL; MIC K. pneumoniae (OXA-48) (K. pneumoniae (OXA-48)): 1 µg/mL; MIC P. aeruginosa PA14 2P4 (pmrB) [1]: 2 µg/mL; MIC P. aeruginosa PA14 4.18 (pmrB) [2]: 2 µg/mL; MIC P. aeruginosa PA14 4.13 (phoQ) [3]: 1 µg/mL; MIC P. aeruginosa PA14 (P. aeruginosa PA14): < 0.5 µg/mL; MIC B. cenocepacia (B. cenocepacia): > 64 µg/mL; MIC P. aeruginosa ZEM9A (P. aeruginosa ZEM9A): 4 µg/mL; MIC P. aeruginosa ZEM-1A (P. aeruginosa ZEM-1A): 0.5 µg/mL; MIC S. maltophilia (S. maltophilia): 0.5 µg/mL; MIC S. epidermidis (S. epidermidis): 32–64; MIC E. cloacae (E. cloacae): 1 µg/mL
RLRKKWRKLKKLL-NH2 [GN6] | 2000 | 
RRWKWRRKIKKWL-NH2 [GN2] | 1000 | 
RWRWPILGRILR-NH2 [GP2] | 500 | 
